# Laboratory results as given in ChEMBL document CHEMBL1201862, “PubChem BioAssay data set” (2004).
#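 48-hour exposure; five concentrations; linearly interpolated endpoints. GI50 = concentration required for 50% inhibition of growth.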 Active and inactive are the calls of the source. Cut-off read from the data, not from the text of the source: active = GI50 up to about 1.1 µM and inactive = higher.
# Assays:
# Assay in all cases: DTP human tumour cell line panel, 48 h
# [1] = system: LXFL 529
# [2] = system: U-251
# [3] = system: OVCAR-8
# [4] = system: PC-3
# [5] = system: LOX IMVI
# [6] = system: UACC-62
# [7] = system: SR
# [8] = system: BT-549
# [9] = system: ACHN
# [10] = system: NCI-H226
# [11] = system: HOP-62
# [12] = system: SF-295
# [13] = system: RPMI-8226
# [14] = system: UO-31
# [15] = system: MDA-MB-231
# [16] = system: A498
# [17] = system: SK-OV-3
# [18] = system: HCT-116
# [19] = system: HCC 2998
# [20] = system: SF-268
SMILES,GI50 [1],GI50 [2],GI50 [3],GI50 [4],GI50 [5],GI50 [6],GI50 [7],GI50 [8],GI50 [9],GI50 [10],GI50 [11],GI50 [12],GI50 [13],GI50 [14],GI50 [15],GI50 [16],GI50 [17],GI50 [18],GI50 [19],GI50 [20]
COc1cc(OC(=O)c2ccccc2)cc2c1C(=O)C=CC2=O,12.7 µM (inactive),16.4 µM (inactive),18.9 µM (inactive),14 µM (inactive),12.3 µM (inactive),13.8 µM (inactive),0.469 µM (active),15.8 µM (inactive),12.8 µM (inactive),28.4 µM (inactive),42.9 µM (inactive),17.3 µM (inactive),2.93 µM (inactive),11.2 µM (inactive),2.29 µM (inactive),18.5 µM (inactive),20 µM (inactive),6.35 µM (inactive),4.58 µM (inactive),16.8 µM (inactive)
Cc1cc2c(cc1C)NC(=O)C(NC(=O)/C=C/c1ccccc1)C=N2 (stereo not given),27.9 µM (inactive),23.9 µM (inactive),38.2 µM (inactive),–,22.7 µM (inactive),34.8 µM (inactive),20.8 µM (inactive),–,41.9 µM (inactive),95.3 µM (inactive),> 100 µM (inactive),50.8 µM (inactive),25.5 µM (inactive),29.6 µM (inactive),–,37.2 µM (inactive),74.8 µM (inactive),20.8 µM (inactive),48.6 µM (inactive),29.9 µM (inactive)
O=C1C=CC(=O)c2cc(Sc3ccccc3)c(=O)c(Sc3ccccc3)cc21,26.1 µM (inactive),46.3 µM (inactive),31.7 µM (inactive),–,> 100 µM (inactive),24.8 µM (inactive),25.5 µM (inactive),–,12.8 µM (inactive),> 100 µM (inactive),> 100 µM (inactive),> 100 µM (inactive),37.3 µM (inactive),37.8 µM (inactive),–,> 100 µM (inactive),43.2 µM (inactive),32.6 µM (inactive),> 100 µM (inactive),42 µM (inactive)
CN(C)c1ccc(-c2cc(O)c3cc4c(cc3n2)OCO4)cc1,> 100 µM (inactive),> 100 µM (inactive),> 100 µM (inactive),–,> 100 µM (inactive),> 100 µM (inactive),> 100 µM (inactive),–,> 100 µM (inactive),> 100 µM (inactive),73.5 µM (inactive),> 100 µM (inactive),> 100 µM (inactive),> 100 µM (inactive),–,> 100 µM (inactive),–,> 100 µM (inactive),> 100 µM (inactive),> 100 µM (inactive)
